Consider four molecules from patent US20220289768A1, “HETEROCYCLIC COMPOUNDS AS STING MODULATORS” (BEIGENE, LTD., priority 2019, published 2022).

The subject of assay [1] is STING in THP1-Dual Cells. The assay is described as follows: STING cellular assay in THP1-Dual cells (Lucia luciferase IRF reporter). The assay is classed as cell-based. Particulars: Homo sapiens, 24 h incubation, QUANTI-Luc readout, 1 nM-10 μM. The text has this:
(§1) STING Cellular Assay in THP1-Dual™ Cells
(§2) THP1-Dual™ cells were derived from the human THP-1 monocyte cell line by stable integration of two inducible reporter constructs. THP1-Dual™ cells feature the Lucia luciferase gene, a new secreted luciferase reporter gene, under the control of an ISG54 (interferon-stimulated gene) minimal promoter in conjunction with five interferon (IFN)-stimulated response elements. THP1-Dual™ cells also express a secreted embryonic alkaline phosphatase (SEAP) reporter gene driven by an IFN-β minimal promoter fused to five copies of the NF-κB consensus transcriptional response element and three copies of the c-Rel binding site. As a result, THP1-Dual™ cells allow the simultaneous study of the NF-κB pathway, by monitoring the activity of SEAP, and the interferon regulatory factor (IRF) pathway, by assessing the activity of Lucia luciferase. Both reporter proteins are readily measurable in the cell culture supernatant when using QUANTI-Blue™, a SEAP detection reagent, and QUANTI-Luc™, a Lucia luciferase detection reagent.
(§3) Distinct variants of human STING (hSTING) that affect CDN recognition and signal transduction have been identified: • R232 (R71-G230-R232-R293): the most prevalent in the human population (˜60%). Referred as the “wild-type” or 232R-RGR allele2. • HAQ (H71-A230-R232-Q293): contains three non-synonymous single nucleotide substitutions; R71H, G230A and R293Q. This allele, found in ˜20% of the population, is less sensitive to CDNs than the “wild-type” allele2.
(§4) Growth Medium: RPMI 1640, 2 mM L-glutamine, 25 mM HEPES, 10% heat-inactivated fetal bovine serum (30 min at 56° C.), 100 μg/mL Normocin™, Pen-Strep (100 U/mL-100 μg/mL)
(§5) 1. After cells have recovered (after at least one passage), maintain and subculture the cells in growth medium. (To maintain selection pressure, add 10 μg/mL of blasticidin and 100 μg/mL of Zeocin™ to the growth medium every other passage.) 2. Pass the cells every 3 days by inoculating 7×10^5 cells/ml.
(§6) Experimental Procedure • 1. Add 180 μL of cell suspension (˜100,000 cells) per well of a flat-bottom 96-well plate (costar 3599). • 2. Then compounds were added with serial dilutions over 10 points with a 1 nM-10 μM final concentration range in 0.10% DMSO/growth medium. • 3. Incubate the plate for 24 h at 37° C., 5% CO2. • 4. Set the BMG PHERAstar FSX instrument with the following parameters: 50 μL of injection, end-point measurement with a 4 second start time and 0.1 second reading time. • 5. Pipet 10 μL of THP1-Dual™ cell culture medium per well into a 96-well white opaque plate (Corning 3903). • 6. Add 50 μL of QUANTI-Luc assay solution to each well and gently tap the plate several times to mix. Proceed immediately with the measurement.

Assay [2] deals with hSTING-R232 in THP1-Dual KI-hSTING-R232 Cells. The assay is described as follows: STING cellular assay in THP1-Dual KI-hSTING-R232 cells (Lucia luciferase IRF reporter). The assay is classed as cell-based. Conditions: Homo sapiens, 24 h incubation, QUANTI-Luc readout, 1 nM-10 μM.
Description: as §1, §2, §3, §4, §5, §6

As usually defined, the EC50 is the concentration giving half of the maximal effect. A lower EC50 goes with a more potent agent.

Take `CCn1nc(C)cc1-c1nc(Cl)c2c3cc(C(N)=O)cc(OC)c3n(C/C=C/Cn3c4nc(-c5cc(C)nn5CC)nc(Cl)c4c4cc(C#N)cc(OCCCN5CCOCC5)c43)c2n1` [Example 1, (E)-4-chloro-9-(4-(4-chloro-6-cyano-2-(1-ethyl-3-methyl-1H-pyrazol-5-yl)-8-(3-morpholinopropoxy)-9H-pyrimido[4,5-b]indol-9-yl)but-2-en-1-yl)-2-(1-ethyl-3-methyl-1H-pyrazol-5-yl)-8-methoxy-9H-pyrimido[4,5-b]indole-6-carboxamide]: the EC50 in assay [1] and in assay [2] was more than 10000 nM in each case.

`CCn1nc(C)cc1-c1nc(O)c2c3cc(C(N)=O)cc(OC)c3n(C/C=C/Cn3c4nc(-c5cc(C)nn5CC)nc(O)c4c4cc(C(N)=O)cc(OCCCN5CCOCC5)c43)c2n1` [Example 2, (E)-9-(4-(6-carbamoyl-2-(1-ethyl-3-methyl-1H-pyrazol-5-yl)-4-hydroxy-8-(3-morpholinopropoxy)-9H-pyrimido[4,5-b]indol-9-yl)but-2-en-1-yl)-2-(1-ethyl-3-methyl-1H-pyrazol-5-yl)-4-hydroxy-8-methoxy-9H-pyrimido[4,5-b]indole-6-carboxamide; trifluoroacetic acid]: the EC50 in assay [1] was more than 10000 nM; in assay [2], 3230 nM.

Take `CCn1nc(C)cc1-c1nc(Cl)c2c3cc(C(N)=O)cc(OC)c3n(C/C=C/Cn3c4nc(-c5cc(C)nn5CC)nc(Cl)c4c4cc(C(N)=O)cc(OCCCN5CCOCC5)c43)c2n1` [Example 3, (E)-9-(4-(6-carbamoyl-4-chloro-2-(1-ethyl-3-methyl-1H-pyrazol-5-yl)-8-(3-morpholinopropoxy)-9H-pyrimido[4,5-b]indol-9-yl)but-2-en-1-yl)-4-chloro-2-(1-ethyl-3-methyl-1H-pyrazol-5-yl)-8-methoxy-9H-pyrimido[4,5-b]indole-6-carboxamide; trifluoroacetic acid]: the EC50 in assay [1] is 182 nM; in assay [2], 3.7 nM.

Consider `CCn1nc(C)cc1-c1ncc2c3cc(C(N)=O)cc(OC)c3n(C/C=C/Cn3c4nc(-c5cc(C)nn5CC)ncc4c4cc(C(N)=O)cc(OCCCN5CCOCC5)c43)c2n1` [Example 4, (E)-9-(4-(6-carbamoyl-2-(1-ethyl-3-methyl-1H-pyrazol-5-yl)-8-(3-morpholinopropoxy)-9H-pyrimido[4,5-b]indol-9-yl)but-2-en-1-yl)-2-(1-ethyl-3-methyl-1H-pyrazol-5-yl)-8-methoxy-9H-pyrimido[4,5-b]indole-6-carboxamide; formic acid], for which the values for the EC50 in assay [1] and in assay [2] were 3.5 nM and 1.5 nM, respectively.
